Assays:
HCT-118 cells = experiment: Cell proliferation assay Method A (ATPlite), HCT-118; format: cell-based; conditions: 72 hours, read-out: antiproliferative activity IC50, HCT-118
Procedure, shortened: (§1)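 Cells seeded at 5,000–10,000 per well with graded compound concentrations and cultured 72 h in 0.5% fetal bovine serum. Growth inhibition read as cellular ATP content by firefly luciferase luminescence (ATPlite).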

H1993 cells = experiment: Cell proliferation assay Method A (ATPlite), H1993; format: cell-based; conditions: Homo sapiens, NCI-H1993, 72 hours, read-out: antiproliferative activity IC50, H1993
Procedure, shortened: as §1

PI3Kδ (p110δ/p85α) = target: T1, PI3Kδ (p110δ/p85α) (Homo sapiens, UniProt O00329); experiment: PI3Kδ fluorescence polarization assay; format: biochemical; conditions: 10 μM ATP
T1 construct: N-terminal histidine-tagged recombinant full-length human p110δ; His tag (N); made in house; host or cells: Baculovirus-infected Sf9 insect cells
Procedure: The proteins are purified by one-step affinity chromatography using glutathione-agarose. […] The reaction product was then mixed with a PIP3 detector protein and the fluorescent PIP3 probe. Polarization (mP) values decrease as fluorescent probe binding to the PIP3 detector is displaced by PIP3 produced by enzymatic activity and the amount of unbound fluorescent probe in the mixture increases. Polarization degrees (mP) value was determined using microplate reader with background subtraction.

BT-474 cells = experiment: Cell proliferation assay Method A (ATPlite), BT-474; format: cell-based; conditions: Homo sapiens, 72 hours, read-out: antiproliferative activity IC50, BT-474
Procedure, shortened: as §1

H358 cells = experiment: Cell proliferation assay Method B, H358; format: cell-based; conditions: Homo sapiens, NCI-H358, NSCLC, 72 hours, read-out: antiproliferative activity IC50, H358
Procedure: (§2) Cancer cell lines were plated at 5,000 to 10,000 per well in 96-well flat bottomed plates with various concentration of compounds. The cells were incubated with compounds for 72 hours in the presence of 0.5% of fetal bovine serum. Growth inhibition was accessed by adenosine triphosphate (ATP) content assay using Promega CellTiter-Glo kit. Promega CellTiter-Glo kit is an ATP monitoring system based on firefly luciferase. Briefly, 16 μl of mammalian cell lysis and substrate solution was added to 84 μl of culture medium per well to lyse the cells and stabilize the ATP. The mixture was shaken and incubated for 30 minutes and subsequently the luminescence was measured.

MiaPaca1 cells = experiment: Cell proliferation assay Method B, MiaPaca1; format: cell-based; conditions: Pancreas, 72 hours, read-out: antiproliferative activity IC50, MiaPaca1
Procedure: as §2

LN-Cap cells = experiment: Cell proliferation assay Method B, LN-Cap; format: cell-based; conditions: Homo sapiens, LNCaP, Prostate, 72 hours, read-out: antiproliferative activity IC50, LN-Cap
Procedure: as §2

SWI-116 cells = experiment: Cell proliferation assay Method B, SWI-116; format: cell-based; conditions: Colon, 72 hours, read-out: antiproliferative activity IC50, SWI-116
Procedure: as §2

SW403 cells = experiment: Cell proliferation assay Method B, SW403; format: cell-based; conditions: Homo sapiens, SW-403, Colon, 72 hours, read-out: antiproliferative activity IC50, SW403
Procedure: as §2

glioblastoma xenografts = conditions: oral dosage; Folkes et al. 2008; cited from earlier work
PC-3 cells = experiment: Cell proliferation assay Method B, PC-3; format: cell-based; conditions: Homo sapiens, Prostate, 72 hours, read-out: antiproliferative activity IC50, PC-3
Procedure: as §2

OVCAR-5 cells = experiment: Cell proliferation assay Method B, OVCAR-5; format: cell-based; conditions: Homo sapiens, Ovarian, 72 hours, read-out: antiproliferative activity IC50, OVCAR-5
Procedure: as §2

CFPAC-1 cells = experiment: Cell proliferation assay Method B, CFPAC-1; format: cell-based; conditions: Homo sapiens, Pancreas, 72 hours, read-out: antiproliferative activity IC50, CFPAC-1
Procedure: as §2

A549 cells = experiment: Cell proliferation assay Method B, A549; format: cell-based; conditions: Homo sapiens, NSCLC, 72 hours, read-out: antiproliferative activity IC50, A549
Procedure: as §2

T1 sequence (O00329 whole entry): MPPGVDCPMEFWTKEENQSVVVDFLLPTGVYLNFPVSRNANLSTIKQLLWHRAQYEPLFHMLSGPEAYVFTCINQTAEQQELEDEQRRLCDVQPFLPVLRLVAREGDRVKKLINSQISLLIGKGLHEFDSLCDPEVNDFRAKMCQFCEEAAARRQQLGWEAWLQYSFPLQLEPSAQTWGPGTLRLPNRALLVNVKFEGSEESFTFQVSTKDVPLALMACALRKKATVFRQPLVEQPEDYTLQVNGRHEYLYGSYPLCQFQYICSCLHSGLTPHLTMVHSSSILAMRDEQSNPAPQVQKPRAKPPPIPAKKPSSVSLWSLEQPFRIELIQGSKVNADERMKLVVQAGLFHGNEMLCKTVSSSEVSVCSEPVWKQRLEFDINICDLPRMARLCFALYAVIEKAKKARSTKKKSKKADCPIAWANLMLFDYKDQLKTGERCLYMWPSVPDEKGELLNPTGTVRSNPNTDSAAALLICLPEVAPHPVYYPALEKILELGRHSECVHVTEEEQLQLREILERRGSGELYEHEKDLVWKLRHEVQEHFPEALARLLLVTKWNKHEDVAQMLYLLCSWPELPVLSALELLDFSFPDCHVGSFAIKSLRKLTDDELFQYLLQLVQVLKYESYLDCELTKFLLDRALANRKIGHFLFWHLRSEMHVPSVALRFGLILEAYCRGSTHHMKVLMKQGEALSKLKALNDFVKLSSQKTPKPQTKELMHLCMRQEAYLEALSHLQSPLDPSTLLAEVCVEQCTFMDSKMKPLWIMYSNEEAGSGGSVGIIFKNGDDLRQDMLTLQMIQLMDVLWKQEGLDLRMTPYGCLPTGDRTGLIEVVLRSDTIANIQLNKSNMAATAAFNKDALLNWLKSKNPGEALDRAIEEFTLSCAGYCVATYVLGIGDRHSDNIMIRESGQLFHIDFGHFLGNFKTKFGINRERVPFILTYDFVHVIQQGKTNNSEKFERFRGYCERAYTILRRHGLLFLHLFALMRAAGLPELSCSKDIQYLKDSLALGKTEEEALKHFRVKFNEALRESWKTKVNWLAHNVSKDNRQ
T1 sequence (P27986 whole entry partner): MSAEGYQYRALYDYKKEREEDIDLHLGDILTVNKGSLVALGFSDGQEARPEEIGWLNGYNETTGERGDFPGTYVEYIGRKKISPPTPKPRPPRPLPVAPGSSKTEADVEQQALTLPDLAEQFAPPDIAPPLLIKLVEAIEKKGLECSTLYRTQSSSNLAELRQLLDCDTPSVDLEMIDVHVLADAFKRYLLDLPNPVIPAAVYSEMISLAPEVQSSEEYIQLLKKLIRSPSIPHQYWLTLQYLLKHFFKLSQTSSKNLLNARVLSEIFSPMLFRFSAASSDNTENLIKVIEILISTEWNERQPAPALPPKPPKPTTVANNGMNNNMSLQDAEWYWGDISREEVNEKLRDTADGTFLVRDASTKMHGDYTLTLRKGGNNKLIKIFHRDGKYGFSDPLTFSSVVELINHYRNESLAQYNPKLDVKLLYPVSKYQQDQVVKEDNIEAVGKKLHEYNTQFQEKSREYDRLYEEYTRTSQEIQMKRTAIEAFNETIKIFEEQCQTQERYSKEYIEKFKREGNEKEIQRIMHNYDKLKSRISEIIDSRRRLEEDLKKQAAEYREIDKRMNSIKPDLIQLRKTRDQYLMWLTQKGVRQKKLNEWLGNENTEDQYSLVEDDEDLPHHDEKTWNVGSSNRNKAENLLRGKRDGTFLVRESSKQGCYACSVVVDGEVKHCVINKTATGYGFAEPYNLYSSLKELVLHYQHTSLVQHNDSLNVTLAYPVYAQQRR

SMILES	IC50 (HCT-118 cells)	IC50 (H1993 cells)	IC50 (PI3Kδ (p110δ/p85α))	IC50 (BT-474 cells)	IC50 (H358 cells)	IC50 (MiaPaca1 cells)	IC50 (LN-Cap cells)	IC50 (SWI-116 cells)	IC50 (SW403 cells)	tumor suppression in glioblastoma xenografts (glioblastoma xenografts)	IC50 (PC-3 cells)	IC50 (OVCAR-5 cells)	IC50 (CFPAC-1 cells)	IC50 (A549 cells)
CN(Cc1cc2nc(-c3ccc(N)cc3)nc(N3CCOCC3)c2s1)c1ncc(C(=O)NO)cn1 [Compound 150, 2-(((2-(4-aminophenyl)-4-morpholinothieno[3,2-d]pyrimidin-6-yl)methyl)(methyl)amino)-N-hydroxypyrimidine-5-carboxamide]	< 100 nM	< 100 nM	< 100 nM	< 100 nM	–	–	–	–	–	–	–	–	–	–
CS(=O)(=O)N1CCN(Cc2cc3nc(-c4cccc5[nH]ncc45)nc(N4CCOCC4)c3s2)CC1 [GDC-0941, reference compound]	–	–	–	–	1000 to 10000 nM	> 10000 nM	100 to 1000 nM	> 10000 nM	> 10000 nM	tumor suppression	1000 to 10000 nM	100 to 1000 nM	> 10000 nM	1000 to 10000 nM
